{
  "source": "patent US20060234866A1",
  "about": "“Formulations with the capacity to increase the efficiency of plants to assimilate different mineral nutrients, especially iron, in normal conditions and in conditions of deficiency of potentially assimilable iron” (Inabonos, S.A., a Spanish joint venture company, priority 2005, published 2006)",
  "tested_on": "pepper plants",
  "experiment": "Iron assimilation and development of pepper plants cultivated in hydroponia",
  "type": "in vivo",
  "protocol": "Four different treatments are presented that are applied to peppers: • 1. The control received a nutritive solution containing different nutrients. • 2. The treatment AIA that received the same nutritive control solution was also treated with indol-acetic acid (natural auxin) at a dose of 10^−6 M. • 3. […] The treatment IND2 that received the same nutritive control solution was also treated with the composition of Example 1 at a dose of 10^−9 M. The pepper plants were cultivated in hydroponia.",
  "key": {"[1]": {"conditions": "dose 10^−6 M in nutritive solution"}},
  "data": [
    {"smiles": "O=C(O)Cc1c[nH]c2ccccc12", "note": "[AIA, indol-acetic acid]", "values": [
      {"measurement": "Assimilated Fe, leaves", "setting": "[1]", "result": 0.335, "unit": "mg plant^−1"},
      {"measurement": "Assimilated Fe, root", "setting": "[1]", "result": 2.90, "unit": "mg plant^−1"},
      {"measurement": "Dry matter, leaves", "setting": "[1]", "result": 4.04, "unit": "g plant^−1"},
      {"measurement": "Dry matter, root", "setting": "[1]", "result": 1.43, "unit": "g plant^−1"},
      {"measurement": "Dry matter, stem", "setting": "[1]", "result": 1.09, "unit": "g plant^−1"},
      {"measurement": "Assimilated Fe, leaves (% of control)", "setting": "dose 10^−6 M, control = 100", "result": 103.4, "unit": "%"},
      {"measurement": "Assimilated Fe, root (% of control)", "setting": "dose 10^−6 M, control = 100", "result": 109.8, "unit": "%"},
      {"measurement": "Dry matter, leaves (% of control)", "setting": "dose 10^−6 M, control = 100", "result": 136, "unit": "%"},
      {"measurement": "Dry matter, root (% of control)", "setting": "dose 10^−6 M, control = 100", "result": 130, "unit": "%"},
      {"measurement": "Dry matter, stem (% of control)", "setting": "dose 10^−6 M, control = 100", "result": 138, "unit": "%"},
      {"measurement": "assimilation and translocation of iron (in words)", "setting": "versus control", "result": "no significant effects"},
      {"measurement": "biostimulant effect (in words)", "setting": "versus control", "result": "presents a biostimulant effect"}
    ]}
  ]
}
